Article PMC11790763, “A Peptide Motif Covering Splice Site B in Neuroligin-1 Binds to Aβ and Acts as a Neprilysin Inhibitor” (Molecular Neurobiology, 2024)
Bridges are numbered along the chain shown (N, C = ends). Roman numbers before positions name the chains, in order. Where no end group is shown, it is not given here.

Experiments:
[1] = biological target: T1, recombinant neprilysin (NEP) (Homo sapiens, UniProt P08473); assay: Neprilysin activity assay with recombinant enzyme (SensoLyte 520); format: biochemical; conditions: four to five independent experiments; for activity of recombinant NEP: dose-dependent, NL1 0.1, 0.3, 1, 3 μM, neurolide 1, 5, 10, 100 μM, 5-FAM/QXL substrate, Ex/Em 485/535 nm, 2 h
T1 construct: purchased Anaspec, Fremont, California, USA (SensoLyte 520 Neprilysin Activity Assay Kit)
Description: NEP activity was measured using the SensoLyte 520 Neprilysin Activity Assay Kit *Fluorimetric* (Anaspec, Fremont, California, USA) following the protocol provided by the manufacturer. Briefly, Aβ1-42 was dissolved in anhydrous DMSO to a stock concentration of 5 mM, followed by dilutions in assay buffer (100 μM, 50 μM, and 5 μM). Both NL1 (3 μM, 1 μM, 0.3 μM, 0.1 μM) and neurolide (100, 10, 5, and 1 μM) were dissolved in assay buffer. Randomly selected two additional NL1-derived peptides, NLp4, and NLp7 (5 μM, Table 1), were included in the analysis. The NEP solution (40 μl) was mixed with 10 μl of either NL1 or peptides and supplemented with 50 μl of NEP substrate (5-FAM/QXL), and the final mixture was incubated in black optical-bottom 96-well plate (Nunc, Rochester, New York, USA). In co-stimulation experiments, Aβ1-42, prepared as described above, was added to the solution in final concentrations either 0.5 μM or 5 μM. The fluorescence signal was recorded at Ex/Em = 485/535 nm every 20 min for 2 h. The data are presented as the relative activity of NEP alone.

brain-derived NEP = biological target: T2, brain-derived NEP (Mus musculus, UniProt Q61391); assay: Neprilysin activity in NEP-enriched brain membrane fraction of WT mice; format: biochemical, mouse (C57Bl/6j); conditions: 40 μg protein, n = 5
T2 construct: Clear supernatants were used as membrane-extracted fractions; from tissue; host or cells: adult mouse brain without cerebellum, Triton X-100-extracted membrane fraction
T2 sequence (Q61391 1-750): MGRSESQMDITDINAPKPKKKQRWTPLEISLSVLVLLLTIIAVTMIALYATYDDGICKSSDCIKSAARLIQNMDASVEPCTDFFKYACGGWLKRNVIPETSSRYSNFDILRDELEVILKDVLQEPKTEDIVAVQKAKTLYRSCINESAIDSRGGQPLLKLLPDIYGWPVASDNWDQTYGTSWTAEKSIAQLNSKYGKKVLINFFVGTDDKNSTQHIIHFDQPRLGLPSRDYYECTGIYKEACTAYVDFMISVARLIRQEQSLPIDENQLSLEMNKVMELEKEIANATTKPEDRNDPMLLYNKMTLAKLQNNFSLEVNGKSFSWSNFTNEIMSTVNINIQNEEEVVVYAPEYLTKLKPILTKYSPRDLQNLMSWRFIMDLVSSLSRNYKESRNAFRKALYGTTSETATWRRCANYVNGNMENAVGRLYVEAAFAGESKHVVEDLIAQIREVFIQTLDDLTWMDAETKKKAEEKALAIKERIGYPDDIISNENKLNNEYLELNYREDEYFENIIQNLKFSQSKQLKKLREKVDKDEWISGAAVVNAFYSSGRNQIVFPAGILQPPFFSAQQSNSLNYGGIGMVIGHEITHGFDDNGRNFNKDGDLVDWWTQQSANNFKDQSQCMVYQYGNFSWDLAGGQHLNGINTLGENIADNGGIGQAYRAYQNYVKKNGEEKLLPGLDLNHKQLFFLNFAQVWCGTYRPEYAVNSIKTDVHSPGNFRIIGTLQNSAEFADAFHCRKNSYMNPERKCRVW
Description: To measure NEP activity in brain tissue, whole brains without cerebellum were dissected from adult mice (C57Bl/6j or 5XFAD) and homogenized with a Teflon-glass homogenizer in five volumes (w/v) of ice-cold lysis buffer containing PBS (pH 7.4), 0.25 M sucrose and protease inhibitor cocktail (Complete™, EDTA-free, Roche Diagnostics, Indianapolis, IN). The homogenates were centrifuged at 9000 × g for 15 min at 4 °C. The supernatants were further centrifuged at 20,000 × g at 4 °C for 20 min. The resulting pellets were solubilized in resuspension buffer containing PBS (pH 7.4) and 1% Triton X-100 for 1 h on ice and again centrifuged at 20,000 × g at 4 °C for 20 min. Clear supernatants were used as membrane-extracted fractions. Protein concentrations of Triton-extracted membrane fractions were determined using the Pierce BCA Protein Assay kit (Thermo Fisher Scientific). The standard assay mixture consisted of membrane fraction containing 40 μg total protein diluted in 40 μl of dilution buffer, 10 μl of testing compound (NL1, neurolide or vehicle), and 50 μl of NEP substrate (5-FAM/QXL; Anaspec) in a total volume of 100 μl. The reaction was initiated by adding substrate to the assay mixture. […] Positive and negative controls were set up according to the manufacturer’s protocol (Anaspec). Fluorescence was measured at Ex/Em = 485/535 nm every 20 min for 2 h. The data were expressed as percentage of relative activity of neprilysin.

Aβ1-42 = biological target: T3, Aβ1-42 (Homo sapiens, UniProt P05067); assay: Aβ1-42 aggregation assay (thioflavin T fluorescence); conditions: 8 days, 50 mM Tris pH 7.4, ThT 5 μM, triplicates, slopes compared with Aβ alone
T3 construct: Aβ1-42, at a final concentration of 75 μM (pH 7.4); purchased Bachem AG (Bubendorf, Switzerland) or Schafer-N; host or cells: synthetic peptide
Description: Aβ1-42 was dissolved in sterile deionized water to a final concentration of 1 mM. Then, the peptide was subjected to a basic shock by adding 2 M NaOH to pH 12 followed by neutralization with 1 M HCl. Aβ1-42, at a final concentration of 75 μM (pH 7.4) either alone or in combination with NL1 (1 μM), neurolide (10 μM), or NLp7 (10 μM), was loaded in triplicates on 96-well plate. Immediately after mixing the samples, thioflavin T (5 μM, ThT; Sigma-Aldrich), dissolved in the aggregation buffer (50 mM Tris, pH 7.4), was added to wells and plate was incubated at 37 °C for 8 days. The formation of beta-amyloid aggregates was monitored first for 210 min and then every 24 h by recording changes in ThT fluorescence at excitation/emission (Ex/Em) = 440/482 nm.

T1 sequence (P08473 whole entry): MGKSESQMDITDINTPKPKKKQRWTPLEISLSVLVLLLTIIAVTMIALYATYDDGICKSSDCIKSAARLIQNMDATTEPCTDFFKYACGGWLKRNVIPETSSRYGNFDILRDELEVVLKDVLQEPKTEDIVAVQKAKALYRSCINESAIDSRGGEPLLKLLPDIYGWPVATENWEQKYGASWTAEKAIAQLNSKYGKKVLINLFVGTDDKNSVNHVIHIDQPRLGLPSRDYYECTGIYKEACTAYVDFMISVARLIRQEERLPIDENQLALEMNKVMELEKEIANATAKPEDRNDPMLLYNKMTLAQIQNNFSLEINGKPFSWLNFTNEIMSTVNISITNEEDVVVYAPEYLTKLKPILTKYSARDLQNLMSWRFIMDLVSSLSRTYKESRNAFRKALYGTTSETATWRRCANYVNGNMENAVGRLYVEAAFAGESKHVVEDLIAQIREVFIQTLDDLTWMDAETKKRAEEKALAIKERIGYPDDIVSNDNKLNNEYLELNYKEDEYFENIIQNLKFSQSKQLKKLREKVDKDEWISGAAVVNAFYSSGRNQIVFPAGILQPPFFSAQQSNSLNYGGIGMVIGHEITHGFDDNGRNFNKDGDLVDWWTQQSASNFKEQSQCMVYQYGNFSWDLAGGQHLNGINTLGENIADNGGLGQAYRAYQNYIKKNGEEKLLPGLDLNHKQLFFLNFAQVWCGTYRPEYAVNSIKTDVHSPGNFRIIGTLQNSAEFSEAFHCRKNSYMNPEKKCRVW
T3 sequence (P05067 672-713): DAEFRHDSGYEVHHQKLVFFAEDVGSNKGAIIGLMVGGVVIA

## I: SEGNRWSNSTKGLFQRAKK-NH2 / II: SEGNRWSNSTKGLFQRAK / III: SEGNRWSNSTKGLFQRA / IV: SEGNRWSNSTKGLFQRA (amide I:18-IV:C, I:19-II:C, II:18-III:C; C-terminus assumed) [neurolide]
[1]
  activity of recombinant NEP: significantly inhibited
[1]; neurolide 10 μM with Aβ1-42 at 0.5 μM or 5 μM
  activity of recombinant NEP in the presence of Aβ1-42: significantly inhibited
brain-derived NEP; neurolide 10 μM
  activity of brain-derived NEP: significantly decreased
Aβ1-42; 75 μM Aβ1-42 + 10 μM peptide, 37 °C
  development of ThT fluorescence (Aβ aggregation): attenuate Aβ peptide aggregation

B1: NL1: recombinant rat neuroligin-1, soluble ectodomain (R&D systems) (protein, UniProt Q62765 46-697, looked up)
extracellular domain: QKLDDVDPLVTTNFGKIRGIKKELNNEILGPVIQFLGVPYAAPPTGEHRFQPPEPPSPWSDIRNATQFAPVCPQNIIDGRLPEVMLPVWFTNNLDVVSSYVQDQSEDCLYLNIYVPTEDVKRISKECARKPGKKICRKGDIRDSGGPKPVMVYIHGGSYMEGTGNLYDGSVLASYGNVIVITVNYRLGVLGFLSTGDQAAKGNYGLLDLIQALRWTSENIGFFGGDPLRITVFGSGAGGSCVNLLTLSHYSEGNRWSNSTKGLFQRAIAQSGTALSSWAVSFQPAKYARILATKVGCNVSDTVELVECLQKKPYKELVDQDVQPARYHIAFGPVIDGDVIPDDPQILMEQGEFLNYDIMLGVNQGEGLKFVENIVDSDDGVSASDFDFAVSNFVDNLYGYPEGKDVLRETIKFMYTDWADRHNPETRRKTLLALFTDHQWVAPAVATADLHSNFGSPTYFYAFYHHCQTDQVPAWADAAHGDEVPYVLGIPMIGPTELFPCNFSKNDVMLSAVVMTYWTNFAKTGDPNQPVPQDTKFIHTKPNRFEEVAWTRYSQKDQLYLHIGLKPRVKEHYRANKVNLWLELVPHLHNLNDISQYTSTTTKVPSTDITLRPTRKNSTPVTSAFPTAKQDDPKQQPSPFSVDQRDYSTELS
modifications: extracellular domain
[1]
  activity of recombinant NEP: significantly inhibited
brain-derived NEP; sNL1 0.3 μM
  activity of brain-derived NEP: significantly decreased
Aβ1-42; 75 μM Aβ1-42 + 1 μM sNL1, 37 °C, Ex/Em 440/482 nm
  rise of ThT fluorescence (Aβ aggregation): significantly decreased
